This is an account of results in article PMC6278385, “Preclinical Pharmacokinetics of C118P, a Novel Prodrug of Microtubules Inhibitor and Its Metabolite C118 in Mice, Rats, and Dogs” (Molecules, 2018).

Where two headings read alike, the source gives them in different places.

The nature of series [1]: Plasma protein binding by ultrafiltration. To be noted: human plasma, read-out: fu (fraction unbound). The series is classed as in vitro ADME. The protocol:
Both C118P and C118 were stable in the plasma with EDTA as anticoagulant. The non-specific binding to the ultrafilter membrane was negligible. The extent of plasma protein binding was reported as a fraction unbound (fu, %) value which was calculated using the formula fu = PF/TC × 100%, where TC is test compound (C118P or C118) concentration in sample before ultrafiltration, and PF is the test compound concentration in the ultrafiltrate (Table 1).
Plasma protein binding of C118P and C118 were determined by ultrafiltration at four concentrations (C118P: 400, 4000, 40,000, and 400,000 ng/mL, C118: 20, 200, 2000, and 20,000 ng/mL) in pooled plasma from Sprague-Dawley rats, beagle dogs, and humans. Stock solutions of C118P and C118 dissolved in methanol were diluted with blank plasma to achieve the test concentrations (the methanol volume is less than 10% of the plasma). The plasma was incubated for 1 h in a water bath at 37 °C. The total concentration of C118P and C118 of spiked plasma (TC) was analyzed by previously described methods. Ultrafiltration was performed with activated high speed centrifugal tubes (Millipore, Burlington, MA, USA). Plasma samples (0.4 mL) were added to the upper layer of the high speed centrifugal tubes, and then centrifuged at 12,000 g for 10 min. The concentration of unbound C118P and C118 in filtrate (PF) was similarly determined by the previously described methods. The percentage of free fraction (fu) of C118P and C118 was calculated as follows: fu = (PF/TC) × 100%.

A further series can be described thus: Whole blood/plasma ratio. The series is classed as in vitro ADME. To be noted: in rat, incubation 30 min. As for the experimental part: The ratio of C118P and C118 in blood and plasma was studied. The whole blood was obtained from healthy volunteer and was separated into two parts to obtain whole blood and plasma. Standard solution was added into whole blood and plasma to mimic the incurred sample. After incubation for 30 min, the whole blood was separated into two parts. One was frozen and thawed to obtain the homogenous whole blood and the other sample was centrifuged to obtain plasma. The samples were analyzed by the established LC-MS/MS method and the blood plasma ratio was calculated.

A short description of series [2]: Metabolic stability in liver microsomes. The series is classed as in vitro ADME, rat. As for the experimental part: (§1) The in vitro metabolic stability of C118P and C118 were estimated in mice, rat, dog, monkey, and human liver microsomes (Research Institute for Liver Diseases Co. Ltd (Shanghai, China)). The incubation mixture contains C118P or C118, NADP (1.0 mM), G-6-P (10 mM), PDH (2 units/mL), MgCl2 (10 mM), and liver microsomes (mice, rats, dogs, monkeys, or humans, 1.0 mg protein/mL) in phosphate buffer. A total of 200 μL of the mixture was removed and quenched with 600 μL acetonitrile in an ice bath at 0, 15, 30, 60, 120, and 240 min after the addition of NADPH.
(§2) CLint, in vitro (the in vitro intrinsic clearance, Equation (1)) was calculated from the t1/2 of C118 disappearance, where Cprotein is the protein concentration during the incubation, and t1/2 was determined by the slope (k) of the log-linear regression analysis of the concentration versus time profiles; thus, t1/2 = ln2/k. […] The in vivo hepatic clearance (CLH, Equation (3)) was then calculated by using CLint and hepatic blood flow, Q ([…] mL·min^−1·kg^−1 in rats, dogs, monkey, and humans, respectively), in the well-stirred liver model disregarding all binding. The hepatic extraction ratio was calculated as CLH divided by Q. CLint, in vitro = (0.693/t1/2) × (1/Cprotein)(1) CLint = CLint, in vitro × (mg protein/g liver weight) × (gliver weight/kg body weight)(2) CLH = (Q × CLint)/(Q + CLint)(3)

The nature of series [3]: Metabolic stability in liver microsomes. The series is classed as in vitro ADME, monkey. As for the experimental part: as §1, §2
For orientation: Liver microsomes are vesicles of endoplasmic reticulum, rich in cytochrome P450 enzymes.

A short description of series [4]: Tissue distribution in rats. It counts as in vivo. As to conditions: for concentration at 10 min: both sexes, Sprague-Dawley (SD), rat, iv, 10 min after i.v. 20 mg/kg of C118P. The protocol: Eighteen rats (weight 220–260 g) with half males and half females were randomly assigned to there groups to carry out a tissue distribution study and fasted overnight. Blood and tissue samples, including the brain, skin, muscle, fat, testicle/ovary, pancreas, spleen, kidney, stomach, small intestine, heart, liver, lung, thymus, and thighbone were collected at 10 min, 1, and 4 h after intravenous administration (20 mg/kg). Blood was centrifuged for plasma samples. Tissue samples were rinsed with water to remove the blood and blotted dry with filter paper. An accurately-weighed amount of the tissue sample (0.2 g) or the entire organ for which weight less than 0.2 g was individually homogenized with EDTA solution (40 mg/mL, 2.0 mL). The left thigh bone was crushed and then soaked overnight in methanol-EDTA solution (1:1, v/v). A volume of 50 μL of homogenate or soak solution was prepared by protein precipitation and determined by the method described above. Tissue weights were used for calculating the concentrations (ng/g) of C118P and C118 in tissues.

Series [5] in a line: Stability in plasma with EDTA as anticoagulant. It counts as in vitro ADME.

With `COc1cc(OC)cc(-c2nc[nH]c2-c2ccc(OC)c(OP(=O)([O-])[O-])c2)c1.[Na+].[Na+]` [C118P], the fraction unbound at 1 h, 400 ng/mL in series [1] (C118P 400 ng/mL) was determined as 0.022 ± 0.001. In series [1] (C118P 4000 ng/mL), the free fraction (fraction unbound) at 1 h, 4000 ng/mL amounted to 0.027. The free fraction (fraction unbound) at 1 h, 40000 ng/mL in series [1] (C118P 40,000 ng/mL) was found to be 0.022 ± 0.001. The free fraction (fraction unbound) at 1 h, 400000 ng/mL in series [1] (C118P 400,000 ng/mL) worked out at 0.057 ± 0.004. Besides, the blood plasma ratio at 30 min in the series “Whole blood/plasma ratio” is 0.8. Besides, the “stability in liver microsomes” value in series [2] (rat liver microsomes (Figure S1)) and in series [3] (monkey liver microsomes (Figure S1)) was “quite stable” throughout. For the same compound, the tissue concentration entry in series [4] (10 min, 1 h and 4 h after i.v. 20 mg/kg of C118P, LLOQ 50 ng/g for tissues) is given as “below or slightly higher than the LLOQ”. Moreover, in series [5], the stability in plasma result is “stable”.

Regarding `COc1cc(OC)cc(-c2nc[nH]c2-c2ccc(OC)c(O)c2)c1` [C118], in series [1] (pooled plasma, C118 200 ng/mL), the unbound share (fraction unbound) at 1 h, 200 ng/mL amounted to 0.028 ± 0.002. In series [1] (pooled plasma, C118 2000 ng/mL), the fraction unbound at 1 h, 2000 ng/mL amounted to 0.047 ± 0.002. The fraction unbound at 1 h, 20000 ng/mL in series [1] (pooled plasma, C118 20,000 ng/mL) was 0.038 ± 0.002. In addition, the blood plasma ratio at 30 min in “Whole blood/plasma ratio” (whole blood and plasma) was 1.05. Moreover, the half-life stood at 10.3 min in series [2] (Sprague-Dawley, rat liver microsomes, 1.0 mg protein/mL, C118 disappearance) and 2.2 min in series [3] (monkey liver microsomes, 1.0 mg protein/mL, C118 disappearance). Besides, the figures for the “CLint, in vitro” value in series [2] (rat liver microsomes) and in series [3] (monkey liver microsomes) were 67.0 μL·min^−1·mg^−1 Protein and 318.6 μL·min^−1·mg^−1 Protein, respectively. In addition, the CLint in series [2] (rat, scaled from CLint, in vitro) stood at 115.3 mL/min/kg; in series [3] (monkey, scaled from CLint, in vitro), 252.8 mL/min/kg. Moreover, the “Extrapolated CLH” value in series [2] (rat, well-stirred liver model) is 43.6 mL/min/kg; in series [3] (monkey, well-stirred liver model) it was 37.5 mL/min/kg. Also, in series [4] (4 h after i.v. 20 mg/kg of C118P, LLOQ 50 ng/g for tissues), the “tissue concentration in most tissues” value is given as “below or slightly higher than LLOQ”. The concentration at 10 min is 6340 ± 4130 ng/g in series [4] (heart, read-out: tissue concentration in heart); 7640 ± 3410 ng/g in series [4] (kidney, read-out: tissue concentration in kidney); 12900 ng/g in series [4] (lung, read-out: tissue concentration in lung). The stability in plasma entry in series [5] is “stable”.

For orientation: fraction unbound means free concentration divided by total concentration. As usually defined, the half-life is how long it takes for the measured level to halve.
